Test results reported in US20240391965A1, “STAPLED ANTIMICROBIAL PEPTIDES (STAMPS) AND USES THEREOF” (Lytica Therapeutics, Inc., priority 2021, published 2024).
Values after ≈ are worked out from the molar mass of the structure shown. Starred links: 1 amine or outer side, 2 acyl side, 3 side chain; linkers in the order of their positions; H or OH if unused. Positions of bridges follow the written chain, without caps; N, C: chain ends. Residues, ends and D or L forms follow the SMILES beside them. 2,2'Bipyridine(5,5'-diCH2) = c1cc(-c2ccc(C[*:2])cn2)ncc1C[*:1]; Biphenyl(4,4'-CH2)2 = c1cc(-c2ccc(C[*:2])cc2)ccc1C[*:1]; Naphthalene(2,6-diCH2) = c1cc2cc(C[*:2])ccc2cc1C[*:1]; mXylylene = c1cc(C[*:1])cc(C[*:2])c1

Experiments:
[1] = 48 hours cytotoxicity assay (CellTiter-Glo), liver toxicity; assay type: cell-based, human
In short: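 Viability from CellTiter-Glo luminescence after StAMP dilution series or vehicle acted on HepG2 cells for 48 h at 37 °C. Cells were grown in EMEM plus 10% FBS and given 4 h to attach before dosing.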

[2] = tested on: Escherichia coli (E. coli); assay type: cell-based; conditions: microbroth dilution, 20-24 hours at 37° C.
Description: (§1) Antimicrobial Activity Assay: The following microbroth dilution protocol was adapted from CLSI to determine the minimum inhibitory concentration (MIC) of StAMPs. Briefly, Mueller-Hinton broth (MHB) or cation-adjusted Mueller-Hinton broth (MHB II) was prepared and autoclaved. Then, a colony of bacterial cells was picked and grown overnight in broth at 37° C. and then diluted and allowed to grow again for 3-4 hours. Serial dilutions of peptide stocks in water (10 μl) were prepared using clear round-bottom polypropylene 96-well plates. Then 90 μl of bacteria in broth was added to give a final inoculum of 5×10^5 CFU/ml. The plates were then covered with porous tape to reduce evaporation and incubated for 20-24 hours at 37° C. The MIC was the minimum peptide concentration at which no visible bacterial growth was observed.

[3] = tested on: Staphylococcus aureus (S. aureus); assay type: cell-based; conditions: microbroth dilution, 20-24 hours at 37° C.
Description: as §1

[4] = tested on: Klebsiella pneumoniae (K. pneumoniae); assay type: cell-based; conditions: microbroth dilution, 20-24 hours at 37° C.
Description: as §1

[5] = tested on: Acinetobacter baumannii (A. baumannii); assay type: cell-based; conditions: microbroth dilution, 20-24 hours at 37° C.
Description: as §1

[6] = tested on: Pseudomonas aeruginosa (P. aeruginosa); assay type: cell-based; conditions: microbroth dilution, 20-24 hours at 37° C.
Description: as §1

[7] = 90 minute cytotoxicity assay (LDH release), renal toxicity; assay type: cell-based
In short: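 Released lactate dehydrogenase, read as absorbance at 490 nm after 10 min with assay reagent, serves as read-out. Renal proximal tubule epithelial cells received peptide serial dilutions or vehicle for 90 min at 37° C after overnight plating.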

[8] = 48 hours of incubation, CellTiter-Glo, read-out: Inhibitory Concentration at 50% Cytotoxicity (IC50) Human Liver Cells (HepG2)

| Compound | IC50 [1, 8] [mg/L] | Minimum Inhibitory Concentration (MIC) E. coli [2] [mg/L] | Minimum Inhibitory Concentration (MIC) S. aureus [3] [mg/L] | Minimum Inhibitory Concentration (MIC) K. pneumoniae [4] [mg/L] | Minimum Inhibitory Concentration (MIC) A. baumannii [5] [mg/L] | Minimum Inhibitory Concentration (MIC) P. aeruginosa [6] [mg/L] | IC50 [7] [mg/L] | IC50 [1] [mg/L] |
| --- | --- | --- | --- | --- | --- | --- | --- | --- |
| CC[C@H](C)[C@H](NC(=O)CN)C(=O)N[C@@H](Cc1ccccc1)C(=O)N[C@@H](CO)C(=O)N[C@@H](CCCCN)C(=O)N[C@H]1CSCc2ccc3cc(ccc3c2)CSC[C@@H](C(=O)N[C@@H](CC(C)C)C(=O)N[C@@H](CC(C)C)C(=O)N[C@H](C(=O)N[C@@H](CO)C(=O)NCC(=O)N[C@@H](CC(C)C)C(=O)N[C@@H](CCCCN)C(=O)NCC(N)=O)[C@@H](C)CC)NC(=O)[C@H](CCCCN)NC(=O)[C@H]([C@@H](C)CC)NC(=O)[C@H](CCCCN)NC(=O)[C@H](CCCCN)NC(=O)CNC(=O)[C@H](C)NC1=O [compound 64] (H-GIFSKCAGKKIKCLLISGLKG-NH2; linker 6-13 via Naphthalene(2,6-diCH2)) | 53 (≈ 22.9 µM) | 8 | >64 | 16 | 8 | >64 |  |  |
| CC[C@H](C)[C@H](NC(=O)CN)C(=O)N[C@@H](Cc1ccccc1)C(=O)N[C@@H](CO)C(=O)N[C@@H](CCCCN)C(=O)N[C@H]1CSCc2ccc(cc2)-c2ccc(cc2)CSC[C@@H](C(=O)N[C@@H](CC(C)C)C(=O)N[C@@H](CC(C)C)C(=O)N[C@H](C(=O)N[C@@H](CO)C(=O)NCC(=O)N[C@@H](CC(C)C)C(=O)N[C@@H](CCCCN)C(=O)NCC(N)=O)[C@@H](C)CC)NC(=O)[C@H](CCCCN)NC(=O)[C@H]([C@@H](C)CC)NC(=O)[C@H](CCCCN)NC(=O)[C@H](CCCCN)NC(=O)CNC(=O)[C@H](C)NC1=O [compound 65] (H-GIFSKCAGKKIKCLLISGLKG-NH2; linker 6-13 via Biphenyl(4,4'-CH2)2; N-terminus assumed) |  |  |  |  |  |  | 15 (≈ 6.4 µM) | 13 (≈ 5.55 µM) |
| CC[C@H](C)[C@H](NC(=O)CN)C(=O)N[C@@H](Cc1ccccc1)C(=O)N[C@@H](CO)C(=O)N[C@@H](CCCCN)C(=O)N[C@@H](CC(C)C)C(=O)N[C@@H](C)C(=O)N[C@H]1CSCc2ccc(nc2)-c2ccc(cn2)CSC[C@@H](C(=O)N[C@H](C(=O)N[C@@H](CO)C(=O)NCC(=O)N[C@@H](CC(C)C)C(=O)N[C@@H](CCCCN)C(=O)NCC(N)=O)[C@@H](C)CC)NC(=O)[C@H](CC(C)C)NC(=O)[C@H](CC(N)=O)NC(=O)[C@H](CCCCN)NC(=O)[C@H]([C@@H](C)CC)NC(=O)[C@H](CCCCN)NC(=O)[C@H](CCCCN)NC1=O [compound 66] (H-GIFSKLACKKIKNLCISGLKG-NH2; linker 8-15 via 2,2'Bipyridine(5,5'-diCH2)) | 75 (≈ 31.2 µM) | 8 | >64 | 16 | 4 | 32 |  |  |
| CC[C@H](C)[C@H](NC(=O)CN)C(=O)N[C@@H](Cc1ccccc1)C(=O)N[C@@H](CO)C(=O)N[C@@H](CCCCN)C(=O)N[C@@H](CC(C)C)C(=O)N[C@H]1CSCc2ccc(cc2)-c2ccc(cc2)CSC[C@@H](C(=O)N[C@@H](CC(C)C)C(=O)N[C@H](C(=O)N[C@@H](CO)C(=O)NCC(=O)N[C@@H](CC(C)C)C(=O)N[C@@H](CCCCN)C(=O)NCC(N)=O)[C@@H](C)CC)NC(=O)[C@H](CC(N)=O)NC(=O)[C@H](CCCCN)NC(=O)[C@H]([C@@H](C)CC)NC(=O)[C@H](CCCCN)NC(=O)[C@H](CCCCN)NC(=O)CNC1=O [compound 88] (H-GIFSKLCGKKIKNCLISGLKG-NH2; linker 7-14 via Biphenyl(4,4'-CH2)2; N-terminus assumed) |  |  |  |  |  |  | 13 (≈ 5.45 µM) | 15 (≈ 6.29 µM) |
| CC[C@H](C)[C@H](NC(=O)CN)C(=O)N[C@@H](Cc1ccccc1)C(=O)N[C@@H](CO)C(=O)N[C@@H](CCCCN)C(=O)N[C@@H](CC(C)C)C(=O)N[C@H]1CSCc2cccc(c2)CSC[C@@H](C(=O)N[C@@H](CCCCN)C(=O)N[C@@H](CC(N)=O)C(=O)N[C@@H](CC(C)C)C(=O)N[C@@H](CC(C)C)C(=O)N[C@H](C(=O)N[C@@H](CO)C(=O)NCC(=O)N[C@@H](CC(C)C)C(=O)N[C@@H](CCCCN)C(=O)NCC(=O)NCC(=O)NCC(=O)N[C@@H](CCCCN)C(=O)O)[C@@H](C)CC)NC(=O)[C@H](CCCCN)NC(=O)[C@H](CCCCN)NC(=O)CNC1=O [compound 94] (H-GIFSKLCGKKCKNLLISGLKGGGK-OH; linker 7-11 via mXylylene; N-terminus assumed) |  |  |  |  |  |  | 168 (≈ 65.8 µM) | > 200 |
| CC[C@H](C)[C@H](NC(=O)CN)C(=O)N[C@@H](Cc1ccccc1)C(=O)N[C@@H](CO)C(=O)N[C@@H](CCCCN)C(=O)N[C@@H](CC(C)C)C(=O)N[C@H]1CSCc2cccc(c2)CSC[C@@H](C(=O)N[C@@H](CCCCN)C(=O)N[C@@H](CC(N)=O)C(=O)N[C@@H](CC(C)C)C(=O)N[C@@H](CC(C)C)C(=O)N[C@H](C(=O)N[C@@H](CO)C(=O)NCC(=O)N[C@@H](CC(C)C)C(=O)N[C@@H](CCCCN)C(=O)NCC(=O)N[C@@H](C)C(=O)NCC(=O)O)[C@@H](C)CC)NC(=O)[C@H](CCCCN)NC(=O)[C@H](CCCCN)NC(=O)CNC1=O [compound 95] (H-GIFSKLCGKKCKNLLISGLKGAG-OH; linker 7-11 via mXylylene; N-terminus assumed) |  |  |  |  |  |  | 167 (≈ 68.5 µM) | > 200 |
| CC[C@H](C)[C@H](NC(=O)CN)C(=O)N[C@@H](Cc1ccccc1)C(=O)N[C@@H](CO)C(=O)N[C@@H](CCCCN)C(=O)N[C@@H](CC(C)C)C(=O)N[C@H]1CSCc2cccc(c2)CSC[C@@H](C(=O)N[C@@H](CCCCN)C(=O)N[C@@H](CC(N)=O)C(=O)N[C@@H](CC(C)C)C(=O)N[C@@H](CC(C)C)C(=O)N[C@H](C(=O)N[C@@H](CO)C(=O)NCC(=O)N[C@@H](CC(C)C)C(=O)N[C@@H](CCCCN)C(=O)NCC(=O)N[C@@H](C)C(=O)N[C@@H](CCCCN)C(=O)O)[C@@H](C)CC)NC(=O)[C@H](CCCCN)NC(=O)[C@H](CCCCN)NC(=O)CNC1=O [compound 96] (H-GIFSKLCGKKCKNLLISGLKGAK-OH; linker 7-11 via mXylylene; N-terminus assumed) |  |  |  |  |  |  | 153 (≈ 61 µM) | 193 (≈ 76.9 µM) |
| CC[C@H](C)[C@H](NC(=O)CN)C(=O)N[C@@H](Cc1ccccc1)C(=O)N[C@@H](CO)C(=O)N[C@@H](CCCCN)C(=O)N[C@@H](CC(C)C)C(=O)N[C@H]1CSCc2cccc(c2)CSC[C@@H](C(=O)N[C@@H](CCCCN)C(=O)N[C@@H](CC(N)=O)C(=O)N[C@@H](CC(C)C)C(=O)N[C@@H](CC(C)C)C(=O)N[C@H](C(=O)N[C@@H](CO)C(=O)NCC(=O)N[C@@H](CC(C)C)C(=O)N[C@@H](CCCCN)C(=O)NCC(=O)O)[C@@H](C)CC)NC(=O)[C@H](CCCCN)NC(=O)[C@H](CCCCN)NC(=O)[C@H](C)NC1=O [compound 97] (H-GIFSKLCAKKCKNLLISGLKG-OH; linker 7-11 via mXylylene; N-terminus assumed) |  |  |  |  |  |  | > 200 | > 200 |
| CC[C@H](C)[C@H](NC(=O)CN)C(=O)N[C@@H](Cc1ccccc1)C(=O)N[C@@H](CO)C(=O)N[C@@H](CCCCN)C(=O)N[C@@H](CC(C)C)C(=O)N[C@H]1CSCc2cccc(c2)CSC[C@@H](C(=O)N[C@@H](CCCCN)C(=O)N[C@@H](CC(N)=O)C(=O)N[C@@H](CC(C)C)C(=O)N[C@@H](CC(C)C)C(=O)N[C@H](C(=O)N[C@@H](CO)C(=O)N[C@@H](C)C(=O)N[C@@H](CC(C)C)C(=O)N[C@@H](CCCCN)C(=O)NCC(=O)O)[C@@H](C)CC)NC(=O)[C@H](CCCCN)NC(=O)[C@H](CCCCN)NC(=O)CNC1=O [compound 98] (H-GIFSKLCGKKCKNLLISALKG-OH; linker 7-11 via mXylylene; N-terminus assumed) |  |  |  |  |  |  | 28 (≈ 12 µM) | 50 (≈ 21.5 µM) |
| CC[C@H](C)[C@H](NC(=O)CN)C(=O)N[C@@H](Cc1ccccc1)C(=O)N[C@@H](CO)C(=O)N[C@@H](CCCCN)C(=O)N[C@@H](CC(C)C)C(=O)N[C@H]1CSCc2cccc(c2)CSC[C@@H](C(=O)N[C@@H](CCCCN)C(=O)N[C@@H](CC(N)=O)C(=O)N[C@@H](CC(C)C)C(=O)N[C@@H](CC(C)C)C(=O)N[C@H](C(=O)N[C@@H](CO)C(=O)N[C@@H](C)C(=O)N[C@@H](CC(C)C)C(=O)N[C@@H](CCCCN)C(=O)NCC(=O)O)[C@@H](C)CC)NC(=O)[C@H](CCCCN)NC(=O)[C@H](CCCCN)NC(=O)[C@H](C)NC1=O [compound 99] (H-GIFSKLCAKKCKNLLISALKG-OH; linker 7-11 via mXylylene; N-terminus assumed) |  |  |  |  |  |  | 45 (≈ 19.2 µM) | 59 (≈ 25.2 µM) |
